Key:
[1] = target: T1, PltM (Pseudomonas protegens, UniProt Q4KCZ3); assay: In vitro PltM halogenation assay with a single halide salt, substrate profile (Assay 1a-1d), LC-MS; format: biochemical
Description: The halogenation assays were carried out similarly to a recently described procedure. For substrate profile determination (Assay 1), 100 μL reactions were carried out in 30 mM sodium phosphate pH 7.4. As a halide source, 200 mM of either NaF (Assay 1a), NaCl (Assay 1b), NaBr (Assay 1c), or NaI (Assay 1d) was used. To ensure that PltM is incapable of fluorinating, an additional 200 μL reaction with 300 mM NaF was run. A 200 μL reaction with 400 mM NaBr was also run to ensure no additional bromination reaction occurred. Each reaction also contained a specified substrate (0.5 mM), FAD (0.2 mM), NADPH (5 mM), PltM (5.5 μM), and SsuE (5.0 μM). The reactions were initiated by adding NADPH under N2. The reaction tubes were tightly closed to avoid contact with air. The reaction mixtures were incubated at 25° C. for 3 h prior to extraction with EtOAc (4×100 μL). The organic layer was dried by a gentle flow of air, and the residue was dissolved in MeOH to prepare 1-10 μg/mL samples for LC-MS analysis.
The halogenation reaction products were analyzed by HPLC or LC-MS by injecting 10 μL of each sample. The compounds were separated by Reversed-phase HPLC at the flow rate of 0.2 mL/min by using the following program: eluent A=H2O; eluent B=MeCN; gradient=2% B for 5 min, increase to 100% B over a 30 min period, stay at 100% B for 9 min, decrease to 2% B over a 1 min period, and re-equilibrate the column at 2% B for 30 min.
For HPLC analysis, the molecules were observed by absorbance at λ=275 nm as described above. As necessary, the following mass spectrometer was operated in negative and positive modes with the following parameters: For negative mode, mass range, 80-600 m/z in profile mode; temperature, 550° C. and ion spray voltage floating, −4500 V, and for positive mode, mass range, 80-600 m/z in profile mode; temperature, 550° C. and ion spray voltage floating, 4500 V. The presence of each compound was analyzed by extracted ion chromatograph (XIC) with the expected mass ±0.05 Da for Assay 1 and Assay 2 and ±0.005 Da for Assay 3 (FIGS. 2A-C, 8-13, and 17-37; Tables 3-4 and 7).

[2] = target: T1, PltM; assay: X-ray crystallography of PltM crystals soaked with FAD and substrates; settings: crystals soaked with 0.5 mM FAD and substrate
Description: PltM crystals were obtained by the hanging drop method with drops containing 0.5 μL of PltM (40 mg/mL) and 0.5 μL of the reservoir solution (0.1 M Tris pH 8, 0.2 M NaCl, 0.1 M CaCl2) and 12-17% PEG 8000). The drops were equilibrated against 0.5 mL of reservoir solution at 21° C. Long rod-shaped crystals appeared after 1-3 days. The crystals were cryoprotected by a gradual transfer to the solution with the same composition as the reservoir solution, additionally containing 20% glycerol. The crystals were then frozen by a rapid immersion into liquid nitrogen.
However, PltM contains eight Cys residues, which, if accessible, would react with Hg salts. […] The structure was determined by the single anomalous dispersion (SAD) method from the EMP derivative data set (using the wavelength of 1.0 Å), as follows. […] This Hg substructure was used as an input in Autosolve in PHENIX suite to obtain initial phases, which were bootstrapped by difference Fourier analysis to yield the total of 33 Hg atoms and a readily interpretable electron density map, with the figure of merit of 0.71 after density modification. […]
PltM crystals were soaked in the reservoir solution used to obtained native PltM crystals, with additional 0.5 mM of FAD. […] FAD was readily discernable in the omit Fo-Fc map. […]

T1 sequence (Q4KCZ3 entry or part of it): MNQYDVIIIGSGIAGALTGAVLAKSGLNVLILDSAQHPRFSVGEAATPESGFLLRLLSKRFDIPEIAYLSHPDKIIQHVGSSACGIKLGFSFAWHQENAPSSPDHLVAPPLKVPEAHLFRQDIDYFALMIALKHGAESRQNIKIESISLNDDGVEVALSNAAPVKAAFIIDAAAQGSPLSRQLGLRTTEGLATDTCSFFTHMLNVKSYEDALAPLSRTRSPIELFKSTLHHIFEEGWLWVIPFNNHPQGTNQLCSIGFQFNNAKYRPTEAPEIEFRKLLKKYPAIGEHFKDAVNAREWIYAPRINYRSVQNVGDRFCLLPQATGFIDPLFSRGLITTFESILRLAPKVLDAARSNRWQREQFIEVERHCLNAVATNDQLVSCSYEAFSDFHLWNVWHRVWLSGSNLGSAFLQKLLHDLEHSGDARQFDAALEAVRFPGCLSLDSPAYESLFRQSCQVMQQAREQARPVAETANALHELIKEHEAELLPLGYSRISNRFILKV

For `Oc1cc(O)cc(O)c1` [Compound 1, phloroglucinol], the “bromination by PltM (products identified by LC-MS)” value ([1]; NaBr as halide source (Assay 1c)) was “only mono-halogenation”, the “chlorination by PltM (products identified by LC-MS)” value ([1]; NaCl as halide source (Assay 1b)) was “Mono- and dihalogenation” and the “fluorination by PltM (products identified by LC-MS)” value ([1]; NaF as halide source (Assay 1a)) was “not fluorinated”. For the same molecule, the “iodination by PltM (products identified by LC-MS)” value ([1]; NaI as halide source (Assay 1d)) was “Mono- and dihalogenation” and the “omit Fo-Fc electron density of substrate in soaked PltM crystals” value [2] was “yielded omit Fo-Fc electron density”.

Source: US20200299671A1, “IMMOBILIZED MULTI-ENZYMATIC HALOGENATION SYSTEM” (priority 2019, published 2020)
